According to patent publication US20230295197A1, “STAT5 and STAT6 Degraders and Uses Thereof” (REGENTS OF THE UNIVERSITY OF MICHICAN, priority 2022, published 2023):
Like-named read-outs stand apart in the source and are kept apart here. *1 amine or outer side, *2 acyl side, *3 side chain or, on linkers, in order; H or OH if unused. Where a SMILES comes first, the peptide text is derived from it. [ ]: non-standard residue; d: D form. The star is where a group is joined. Benzothienyl2CO(5-CF2PO3H2) = O=C(c1cc2cc(C(F)(F)P(=O)(O)O)ccc2s1)*; βAla(N-(4-Br-phenyl)) = O=C(CCN(c1ccc(Br)cc1)[*:1])[*:2]; NHBn(4-(4-Me-thiazol-5-yl)) = Cc1ncsc1-c1ccc(CN*)cc1; Hyp = O=C(O)[C@@H]1C[C@@H](O)CN1; Tle = CC(C)(C)[C@H](N)C(=O)O; Ava = NCCCCC(=O)O

Biological target: T1, STAT6 (Homo sapiens, UniProt P42226)
T1 construct: endogenous in cells; host or cells: MOLM-16, KU-812, SKNO1, MB231, L1236
T1 sequence (P42226 1-847): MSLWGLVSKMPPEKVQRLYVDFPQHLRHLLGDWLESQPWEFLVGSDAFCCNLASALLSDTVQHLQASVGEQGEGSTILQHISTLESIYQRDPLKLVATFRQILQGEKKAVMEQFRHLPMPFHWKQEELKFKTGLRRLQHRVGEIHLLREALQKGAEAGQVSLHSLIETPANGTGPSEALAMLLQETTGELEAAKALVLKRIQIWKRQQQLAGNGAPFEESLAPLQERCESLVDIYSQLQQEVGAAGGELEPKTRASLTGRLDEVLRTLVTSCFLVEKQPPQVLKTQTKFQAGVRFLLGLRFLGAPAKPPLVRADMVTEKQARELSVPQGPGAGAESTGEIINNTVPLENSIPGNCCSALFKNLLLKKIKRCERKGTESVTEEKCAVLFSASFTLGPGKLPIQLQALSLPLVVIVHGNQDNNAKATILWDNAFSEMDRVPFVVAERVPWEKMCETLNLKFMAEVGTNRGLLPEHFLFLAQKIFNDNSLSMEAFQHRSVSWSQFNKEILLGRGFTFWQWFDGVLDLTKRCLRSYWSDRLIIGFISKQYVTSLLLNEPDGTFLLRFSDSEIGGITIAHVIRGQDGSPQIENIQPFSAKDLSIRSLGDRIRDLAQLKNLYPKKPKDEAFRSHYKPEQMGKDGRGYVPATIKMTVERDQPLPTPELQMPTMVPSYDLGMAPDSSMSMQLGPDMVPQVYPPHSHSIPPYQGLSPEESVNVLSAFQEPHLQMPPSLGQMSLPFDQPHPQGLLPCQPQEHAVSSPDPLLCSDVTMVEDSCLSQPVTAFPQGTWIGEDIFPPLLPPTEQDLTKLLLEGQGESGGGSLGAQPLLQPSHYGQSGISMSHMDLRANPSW
Assay: Immunoblotting (Western blot) analysis of STAT6 degradation efficiency of degraders in treated cells
Type: cell-based
Summary of the method: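 ~1e6 cells/pt; cpd at indicated conc and duration; RIPA + protease/phosphatase inhibitors; BCA; 20-40 μg/lane Tris-glycine SDS-PAGE; PVDF; primary Ab 1:1000 o/n 4 °C; IRDye secondaries 1 h rt; infrared scan and densitometry; GAPDH loading ctrl.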

[1] = L1236 cells, read-out: DC50 S6 L1236
[2] = MOLM-16 cells, class symbols, read-out: DC50 S6 MOLM-16

| SMILES | DC50 [1] | DC50 [2] | DC50 (read-out: DC50 S6 MB231, MB231 cells) |
| --- | --- | --- | --- |
| Cc1ncsc1-c1ccc([C@H](C)NC(=O)[C@@H]2C[C@@H](O)CN2C(=O)[C@@H](NC(=O)CCCCNC(=O)CO[C@H]2C[C@@H](C(=O)N3CCO[C@H](c4ccccc4)C3)N(C(=O)[C@@H](NC(=O)c3cc4cc(C(F)(F)P(=O)(O)O)ccc4s3)C(C)(C)C)C2)C(C)(C)C)cc1 [Compound 428, (difluoro(2-(((S)-1-((2S,4S)-4-(2-((5-(((S)-1-((2S,4R)-4-hydroxy-2-(((S)-1-(4-(4-methylthiazol-5-yl)phenyl)ethyl)carbamoyl)pyrrolidin-1-yl)-3,3-dimethyl-1-oxobutan-2-yl)amino)-5-oxopentyl)amino)-2-oxoethoxy)-2-((R)-2-phenylmorpholine-4-carbonyl)pyrrolidin-1-yl)-3,3-dimethyl-1-oxobutan-2-yl)carbamoyl)benzo[b]thiophen-5-yl)methyl)phosphonic acid] | > 10 µM | > 10 µM | – |
| CC(C)(C)[C@H](NC(=O)c1cc2cc(C(F)(F)P(=O)(O)O)ccc2s1)C(=O)N1C[C@@H](OCC(=O)NCCCCCC#Cc2cccc3c2C(=O)N(C2CCC(=O)NC2=O)C3=O)C[C@H]1C(=O)N1CCO[C@H](c2ccccc2)C1 (stereo partly drawn) [Compound 487, ((2-(((2S)-1-((2S,4S)-4-(2-((7-(2-(2,6-dioxopiperidin-3-yl)-1,3-dioxoisoindolin-4-yl)hept-6-yn-1-yl)amino)-2-oxoethoxy)-2-((R)-2-phenylmorpholine-4-carbonyl)pyrrolidin-1-yl)-3,3-dimethyl-1-oxobutan-2-yl)carbamoyl)benzo[b]thiophen-5-yl)difluoromethyl)phosphonic acid] | – | > 10 µM | – |
| CC(C)(C)[C@H](NC(=O)c1cc2cc(C(F)(F)P(=O)(O)O)ccc2s1)C(=O)N1CCN(C(=O)CC(=O)NCC#Cc2ccc3c(c2)C(=O)N(C2CCC(=O)NC2=O)C3=O)C[C@H]1C(=O)N1CCC[C@H](c2ccccc2)C1 (stereo partly drawn) [Compound 522, ((2-(((2S)-1-((2S)-4-(3-((3-(2-(2,6-dioxopiperidin-3-yl)-1,3-dioxoisoindolin-5-yl)prop-2-yn-1-yl)amino)-3-oxopropanoyl)-2-((R)-3-phenylpiperidine-1-carbonyl)piperazin-1-yl)-3,3-dimethyl-1-oxobutan-2-yl)carbamoyl)benzo[b]thiophen-5-yl)difluoromethyl)phosphonic acid] | – | > 10 µM | – |
| CC(C)(C)[C@H](NC(=O)c1cc2cc(C(F)(F)P(=O)(O)O)ccc2s1)C(=O)N1CCN(C(=O)CC(=O)NCC#Cc2cccc3c2C(=O)N(C2CCC(=O)NC2=O)C3=O)C[C@H]1C(=O)N1CCO[C@H](c2ccccc2)C1 (stereo partly drawn) [Compound 507, ((2-(((2S)-1-((2S)-4-(3-((3-(2-(2,6-dioxopiperidin-3-yl)-1,3-dioxoisoindolin-4-yl)prop-2-yn-1-yl)amino)-3-oxopropanoyl)-2-((R)-2-phenylmorpholine-4-carbonyl)piperazin-1-yl)-3,3-dimethyl-1-oxobutan-2-yl)carbamoyl)benzo[b]thiophen-5-yl)difluoromethyl)phosphonic acid] | – | > 10 µM | – |
| CC(C)(C)[C@H](NC(=O)c1cc2cc(C(F)(F)P(=O)(O)O)ccc2s1)C(=O)N1C[C@@H](OCC(=O)NCC#Cc2cccc3c2C(=O)N(C2CCC(=O)NC2=O)C3=O)C[C@H]1C(=O)N1CCO[C@H](c2ccccc2)C1 (stereo partly drawn) [Compound 479, ((2-(((2S)-1-((2S,4S)-4-(2-((3-(2-(2,6-dioxopiperidin-3-yl)-1,3-dioxoisoindolin-4-yl)prop-2-yn-1-yl)amino)-2-oxoethoxy)-2-((R)-2-phenylmorpholine-4-carbonyl)pyrrolidin-1-yl)-3,3-dimethyl-1-oxobutan-2-yl)carbamoyl)benzo[b]thiophen-5-yl)difluoromethyl)phosphonic acid] | – | > 10 µM | – |
| CC(C)(C)[C@H](NC(=O)c1cc2cc(C(F)(F)P(=O)(O)O)ccc2s1)C(=O)N1Cc2cc(OCC(=O)NCCCC#Cc3ccc4c(c3)C(=O)N(C3CCC(=O)NC3=O)C4=O)ccc2C[C@H]1C(=O)N1CCC[C@H](c2ccccc2)C1 (stereo partly drawn) [Compound 554, ((2-(((2S)-1-((3S)-7-(2-((5-(2-(2,6-dioxopiperidin-3-yl)-1,3-dioxoisoindolin-5-yl)pent-4-yn-1-yl)amino)-2-oxoethoxy)-3-((R)-3-phenylpiperidine-1-carbonyl)-3,4-dihydroisoquinolin-2(1H)-yl)-3,3-dimethyl-1-oxobutan-2-yl)carbamoyl)benzo[b]thiophen-5-yl)difluoromethyl)phosphonic acid] | – | > 10 µM | – |
| Cc1ncsc1-c1ccc(CNC(=O)[C@@H]2C[C@@H](O)CN2C(=O)[C@@H](NC(=O)CCCCNC(=O)CCN(C(=O)[C@@H]2CCCN2C(=O)[C@@H](NC(=O)c2cc3cc(C(F)(F)P(=O)(O)O)ccc3s2)C(C)(C)C)c2ccc(Br)cc2)C(C)(C)C)cc1 [Compound 401] ({Benzothienyl2CO(5-CF2PO3H2)}-[Tle]P[βAla(N-(4-Br-phenyl))][Ava][Tle][Hyp]-{NHBn(4-(4-Me-thiazol-5-yl))}) | – | – | > 10 µM |
| Cc1ncsc1-c1ccc([C@H](C)NC(=O)[C@@H]2C[C@@H](O)CN2C(=O)[C@@H](NC(=O)CCCCCCCCNC(=O)COc2ccc3c(c2)CN(C(=O)[C@@H](NC(=O)c2cc4cc(C(F)(F)P(=O)(O)O)ccc4s2)C(C)(C)C)[C@H](C(=O)N2CCO[C@H](c4ccccc4)C2)C3)C(C)(C)C)cc1 [Compound 468, (difluoro(2-(((S)-1-((S)-7-(2-((9-(((S)-1-((2S,4R)-4-hydroxy-2-(((S)-1-(4-(4-methylthiazol-5-yl)phenyl)ethyl)carbamoyl)pyrrolidin-1-yl)-3,3-dimethyl-1-oxobutan-2-yl)amino)-9-oxononyl)amino)-2-oxoethoxy)-3-((R)-2-phenylmorpholine-4-carbonyl)-3,4-dihydroisoquinolin-2(1H)-yl)-3,3-dimethyl-1-oxobutan-2-yl)carbamoyl)benzo[b]thiophen-5-yl)methyl)phosphonic acid] | > 10 µM | > 10 µM | – |
| Cc1ncsc1-c1ccc([C@H](C)NC(=O)[C@@H]2C[C@@H](O)CN2C(=O)[C@@H](NC(=O)CNC(=O)CC(=O)N2CCN(C(=O)[C@@H](NC(=O)c3cc4cc(C(F)(F)P(=O)(O)O)ccc4s3)C(C)(C)C)[C@H](C(=O)N3CCO[C@H](c4ccccc4)C3)C2)C(C)(C)C)cc1 [Compound 443, (difluoro(2-(((S)-1-((S)-4-(3-((2-(((S)-1-((2S,4R)-4-hydroxy-2-(((S)-1-(4-(4-methylthiazol-5-yl)phenyl)ethyl)carbamoyl)pyrrolidin-1-yl)-3,3-dimethyl-1-oxobutan-2-yl)amino)-2-oxoethyl)amino)-3-oxopropanoyl)-2-((R)-2-phenylmorpholine-4-carbonyl)piperazin-1-yl)-3,3-dimethyl-1-oxobutan-2-yl)carbamoyl)benzo[b]thiophen-5-yl)methyl)phosphonic acid] | > 10 µM | > 10 µM | – |
| Cc1ncsc1-c1ccc([C@H](C)NC(=O)[C@@H]2C[C@@H](O)CN2C(=O)[C@@H](NC(=O)CCCCCCNC(=O)COc2ccc3c(c2)CN(C(=O)[C@@H](NC(=O)c2cc4cc(C(F)(F)P(=O)(O)O)ccc4s2)C(C)(C)C)[C@H](C(=O)N2CCC[C@H](c4ccccc4)C2)C3)C(C)(C)C)cc1 [Compound 475, (difluoro(2-(((S)-1-((S)-7-(2-((7-(((S)-1-((2S,4R)-4-hydroxy-2-(((S)-1-(4-(4-methylthiazol-5-yl)phenyl)ethyl)carbamoyl)pyrrolidin-1-yl)-3,3-dimethyl-1-oxobutan-2-yl)amino)-7-oxoheptyl)amino)-2-oxoethoxy)-3-((R)-3-phenylpiperidine-1-carbonyl)-3,4-dihydroisoquinolin-2(1H)-yl)-3,3-dimethyl-1-oxobutan-2-yl)carbamoyl)benzo[b]thiophen-5-yl)methyl)phosphonic acid] | – | > 10 µM | – |
| Cc1ncsc1-c1ccc([C@H](C)NC(=O)[C@@H]2C[C@@H](O)CN2C(=O)[C@@H](NC(=O)CNC(=O)CO[C@H]2C[C@@H](C(=O)N3CCC[C@H](c4ccccc4)C3)N(C(=O)[C@@H](NC(=O)c3cc4cc(C(F)(F)P(=O)(O)O)ccc4s3)C(C)(C)C)C2)C(C)(C)C)cc1 [Compound 434, (difluoro(2-(((S)-1-((2S,4S)-4-(2-((2-(((S)-1-((2S,4R)-4-hydroxy-2-(((S)-1-(4-(4-methylthiazol-5-yl)phenyl)ethyl)carbamoyl)pyrrolidin-1-yl)-3,3-dimethyl-1-oxobutan-2-yl)amino)-2-oxoethyl)amino)-2-oxoethoxy)-2-((R)-3-phenylpiperidine-1-carbonyl)pyrrolidin-1-yl)-3,3-dimethyl-1-oxobutan-2-yl)carbamoyl)benzo[b]thiophen-5-yl)methyl)phosphonic acid] | > 10 µM | > 10 µM | – |
